Reference: the CheMixHub viscosity set
“And” between values parts separate entries of the source, which are not always exact repeats. Identical values can stand only once.

Test: xn = mol fraction of the nth substance listed

CC(=O)N(C)C + O
Details	viscosity
298.15 K, 101 kPa, x1 = 0.0203	1.214 mPa·s
298.15 K, 101 kPa, x1 = 0.025	1.265 mPa·s
298.15 K, 101 kPa, x1 = 0.0502	1.653 mPa·s
298.15 K, 101 kPa, x1 = 0.065	1.871 mPa·s
298.15 K, 101 kPa, x1 = 0.0703	1.982 mPa·s
298.15 K, 101 kPa, x1 = 0.1	2.467 mPa·s
298.15 K, 101 kPa, x1 = 0.1011	2.413 mPa·s
298.15 K, 101 kPa, x1 = 0.12	2.754 mPa·s
298.15 K, 101 kPa, x1 = 0.1203	2.797 mPa·s
298.15 K, 101 kPa, x1 = 0.1495	3.161 mPa·s
298.15 K, 101 kPa, x1 = 0.1497	3.223 mPa·s
298.15 K, 101 kPa, x1 = 0.1698	3.471 mPa·s
298.15 K, 101 kPa, x1 = 0.2003	3.774 mPa·s
298.15 K, 101 kPa, x1 = 0.2004	3.728 mPa·s
298.15 K, 101 kPa, x1 = 0.22	3.908 mPa·s
298.15 K, 101 kPa, x1 = 0.2497	4.023 mPa·s
298.15 K, 101 kPa, x1 = 0.2512	3.94 mPa·s
298.15 K, 101 kPa, x1 = 0.2701	4.04 mPa·s
298.15 K, 101 kPa, x1 = 0.3	3.99 mPa·s
298.15 K, 101 kPa, x1 = 0.3002	3.941 mPa·s
298.15 K, 101 kPa, x1 = 0.32	3.917 mPa·s
298.15 K, 101 kPa, x1 = 0.3501	3.692 mPa·s and 3.761 mPa·s
298.15 K, 101 kPa, x1 = 0.4002	3.426 mPa·s
298.15 K, 101 kPa, x1 = 0.4009	3.341 mPa·s
298.15 K, 101 kPa, x1 = 0.4503	3.059 mPa·s
298.15 K, 101 kPa, x1 = 0.5003	2.69 mPa·s
298.15 K, 101 kPa, x1 = 0.5018	2.606 mPa·s
298.15 K, 101 kPa, x1 = 0.5999	2.09 mPa·s
298.15 K, 101 kPa, x1 = 0.6031	1.995 mPa·s
298.15 K, 101 kPa, x1 = 0.6505	1.777 mPa·s
298.15 K, 101 kPa, x1 = 0.7	1.646 mPa·s
298.15 K, 101 kPa, x1 = 0.7005	1.592 mPa·s
298.15 K, 101 kPa, x1 = 0.755	1.419 mPa·s
298.15 K, 101 kPa, x1 = 0.8002	1.329 mPa·s
298.15 K, 101 kPa, x1 = 0.8048	1.284 mPa·s
298.15 K, 101 kPa, x1 = 0.8499	1.212 mPa·s
298.15 K, 101 kPa, x1 = 0.8501	1.185 mPa·s
298.15 K, 101 kPa, x1 = 0.8999	1.113 mPa·s
298.15 K, 101 kPa, x1 = 0.9049	1.083 mPa·s
298.15 K, 101.33 kPa, x2 = 0.1008	1.071 mPa·s
298.15 K, 101.33 kPa, x2 = 0.2042	1.286 mPa·s
298.15 K, 101.33 kPa, x2 = 0.3008	1.582 mPa·s
298.15 K, 101.33 kPa, x2 = 0.4068	2.047 mPa·s
298.15 K, 101.33 kPa, x2 = 0.5052	2.607 mPa·s
298.15 K, 101.33 kPa, x2 = 0.6026	3.31 mPa·s
298.15 K, 101.33 kPa, x2 = 0.7051	3.873 mPa·s
298.15 K, 101.33 kPa, x2 = 0.8054	3.612 mPa·s
298.15 K, 101.33 kPa, x2 = 0.9239	2.342 mPa·s
298.16 K, 101 kPa, x2 = 0.09	1.07 mPa·s
298.16 K, 101 kPa, x2 = 0.155	1.2 mPa·s
298.16 K, 101 kPa, x2 = 0.235	1.4 mPa·s
298.16 K, 101 kPa, x2 = 0.314	1.67 mPa·s
298.16 K, 101 kPa, x2 = 0.459	2.37 mPa·s
298.16 K, 101 kPa, x2 = 0.604	3.4 mPa·s
298.16 K, 101 kPa, x2 = 0.6607	3.75 mPa·s
298.16 K, 101 kPa, x2 = 0.741	3.97 mPa·s
298.16 K, 101 kPa, x2 = 0.7645	3.94 mPa·s
298.16 K, 101 kPa, x2 = 0.8044	3.65 mPa·s
298.16 K, 101 kPa, x2 = 0.8517	3.16 mPa·s
300.2 K, 101 kPa, x2 = 0.0298	1.005 mPa·s
300.2 K, 101 kPa, x2 = 0.0519	1.037 mPa·s
300.2 K, 101 kPa, x2 = 0.0694	1.062 mPa·s
300.2 K, 101 kPa, x2 = 0.0926	1.105 mPa·s
300.2 K, 101 kPa, x2 = 0.2763	1.564 mPa·s
300.2 K, 101 kPa, x2 = 0.436	2.3 mPa·s
300.2 K, 101 kPa, x2 = 0.555	3.112 mPa·s
300.2 K, 101 kPa, x2 = 0.6259	3.615 mPa·s
300.2 K, 101 kPa, x2 = 0.6897	3.957 mPa·s
300.2 K, 101 kPa, x2 = 0.7347	4.029 mPa·s
300.2 K, 101 kPa, x2 = 0.7737	3.926 mPa·s
300.2 K, 101 kPa, x2 = 0.8015	3.741 mPa·s
300.2 K, 101 kPa, x2 = 0.8783	2.782 mPa·s
300.2 K, 101 kPa, x2 = 0.9515	1.599 mPa·s
303.15 K, 101 kPa, x1 = 0.0203	1.076 mPa·s
303.15 K, 101 kPa, x1 = 0.0502	1.443 mPa·s
303.15 K, 101 kPa, x1 = 0.0703	1.716 mPa·s
303.15 K, 101 kPa, x1 = 0.1	2.112 mPa·s
303.15 K, 101 kPa, x1 = 0.1203	2.379 mPa·s
303.15 K, 101 kPa, x1 = 0.1497	2.719 mPa·s
303.15 K, 101 kPa, x1 = 0.1698	2.915 mPa·s
303.15 K, 101 kPa, x1 = 0.2003	3.156 mPa·s
303.15 K, 101 kPa, x1 = 0.22	3.263 mPa·s
303.15 K, 101 kPa, x1 = 0.2497	3.357 mPa·s
303.15 K, 101 kPa, x1 = 0.2701	3.373 mPa·s
303.15 K, 101 kPa, x1 = 0.3	3.339 mPa·s
303.15 K, 101 kPa, x1 = 0.32	3.286 mPa·s
303.15 K, 101 kPa, x1 = 0.3501	3.169 mPa·s
303.15 K, 101 kPa, x1 = 0.4002	2.914 mPa·s
303.15 K, 101 kPa, x1 = 0.4503	2.628 mPa·s
303.15 K, 101 kPa, x1 = 0.5003	2.336 mPa·s
303.15 K, 101 kPa, x1 = 0.5999	1.852 mPa·s
303.15 K, 101 kPa, x1 = 0.7	1.484 mPa·s
303.15 K, 101 kPa, x1 = 0.8002	1.216 mPa·s
303.15 K, 101 kPa, x1 = 0.8499	1.114 mPa·s
308.15 K, 101 kPa, x1 = 0.065	1.428 mPa·s
308.15 K, 101 kPa, x1 = 0.1	1.767 mPa·s
308.15 K, 101 kPa, x1 = 0.1011	1.81 mPa·s
308.15 K, 101 kPa, x1 = 0.1495	2.307 mPa·s
308.15 K, 101 kPa, x1 = 0.2	2.629 mPa·s
308.15 K, 101 kPa, x1 = 0.2004	2.661 mPa·s
308.15 K, 101 kPa, x1 = 0.2512	2.79 mPa·s
308.15 K, 101 kPa, x1 = 0.3	2.763 mPa·s
308.15 K, 101 kPa, x1 = 0.3002	2.784 mPa·s
308.15 K, 101 kPa, x1 = 0.3501	2.667 mPa·s
308.15 K, 101 kPa, x1 = 0.4	2.479 mPa·s
308.15 K, 101 kPa, x1 = 0.4009	2.474 mPa·s
308.15 K, 101 kPa, x1 = 0.5018	1.929 mPa·s
308.15 K, 101 kPa, x1 = 0.6	1.694 mPa·s
308.15 K, 101 kPa, x1 = 0.6031	1.568 mPa·s
308.15 K, 101 kPa, x1 = 0.6505	1.424 mPa·s
308.15 K, 101 kPa, x1 = 0.7005	1.305 mPa·s
308.15 K, 101 kPa, x1 = 0.755	1.183 mPa·s
308.15 K, 101 kPa, x1 = 0.8048	1.085 mPa·s
308.15 K, 101 kPa, x1 = 0.8501	1.003 mPa·s
308.15 K, 101 kPa, x1 = 0.9049	0.922 mPa·s
318.15 K, 101 kPa, x1 = 0.025	0.784 mPa·s
318.15 K, 101 kPa, x1 = 0.065	1.106 mPa·s
318.15 K, 101 kPa, x1 = 0.1011	1.387 mPa·s
318.15 K, 101 kPa, x1 = 0.12	1.533 mPa·s
318.15 K, 101 kPa, x1 = 0.1495	1.718 mPa·s
318.15 K, 101 kPa, x1 = 0.2004	1.944 mPa·s
318.15 K, 101 kPa, x1 = 0.2512	2.05 mPa·s
318.15 K, 101 kPa, x1 = 0.3002	2.056 mPa·s
318.15 K, 101 kPa, x1 = 0.3501	1.986 mPa·s
318.15 K, 101 kPa, x1 = 0.4009	1.853 mPa·s
318.15 K, 101 kPa, x1 = 0.5018	1.553 mPa·s
318.15 K, 101 kPa, x1 = 0.6031	1.274 mPa·s
318.15 K, 101 kPa, x1 = 0.6505	1.178 mPa·s
318.15 K, 101 kPa, x1 = 0.7005	1.085 mPa·s
318.15 K, 101 kPa, x1 = 0.755	0.999 mPa·s
318.15 K, 101 kPa, x1 = 0.8048	0.932 mPa·s
318.15 K, 101 kPa, x1 = 0.8501	0.868 mPa·s
318.15 K, 101 kPa, x1 = 0.9049	0.803 mPa·s
